Values after ≈ are worked out from the molar mass of the structure shown.
tested on: Mycobacterium tuberculosis; assay: Antitubercular activity against Mycobacterium tuberculosis H37Rv MTCC 300 after 7 days by Alamar blue assay; format: functional; details: H37Rv MTCC 300, 168 h

`NNC(=O)c1ccncc1` [ISONIAZID] was tested. Which MIC did it give?
Its MIC is 0.25 µg/mL (≈ 1.82 µM).

`O=C(Nc1nnc(-c2ccc([N+](=O)[O-])cc2)o1)C1CC(=O)N(c2ccccc2)C1` (stereo unspecified) was tested. Which MIC did it give?
Its MIC is 25 µg/mL (≈ 63.6 µM).

How did the MIC turn out when `COc1ccc(-c2nnc(NC(=O)C3CC(=O)N(c4ccccc4)C3)o2)cc1` (stereo unspecified) was run?
The MIC was 3.12 µg/mL (≈ 8.26 µM).

Which MIC does the source give for `O=C(Nc1nnc(-c2ccccc2)o1)C1CC(=O)N(c2ccccc2)C1` (stereo unspecified) here?
The MIC was 12.5 µg/mL (≈ 35.9 µM).

Which MIC does the source give for `Cc1ccc(-c2nnc(NC(=O)C3CC(=O)N(c4ccccc4)C3)o2)cc1` (stereo unspecified) here?
Its MIC is 50 µg/mL (≈ 138 µM).

How did the MIC turn out when `O=C(Nc1nnc(-c2ccc(Cl)cc2)o1)C1CC(=O)N(c2ccccc2)C1` (stereo unspecified) was run?
The MIC was 25 µg/mL (≈ 65.3 µM).

Source: ChEMBL document CHEMBL3045509, “Oxadiazolo pyrrolidine carboxamides as enoyl-ACP reductase inhibitors: design, synthesis and antitubercular activity screening” (2013)
